Reference: US20080161254A1, “HCV INHIBITORS” (ViroBay, Inc., priority 2007, published 2008)

Test system: HCV replication (HCV replicon-containing Huh7/Clone A cells)
Assay: HCV replicon assay
Assay type: cell-based
Details: Hepatitis C virus, Huh-7, 48 hours incubation, HCV replicon RNA by RT-qPCR normalized to total RNA, read-out: IC50, inhibition of HCV replication
Text: The HCV replicon assay is a cell-culture system that mimics in vivo HCV replication and provides a system to study HCV replication in vitro. It was created by transfecting cloned viral RNA derived from a consensus HCV genomic sequence into human Huh7 hepatoma cells that are semi-permissive for viral RNA production (Lohmann V., Korner F., Koch J.-0., Herian U., Theilmann L. and Bartenschlager R. (1999). Replication of subgenomic Hepatitis C virus RNAs in a hepatoma cell line. Science 285, 110-113 and Blight K. J., Kolykhalov A. A. and Rice C. M. (2000). Efficient initiation of HCV RNA Replication in cell culture. Science 290, […]). These transfected cell lines contain a subgenomic HCV RNA genome that includes (1) the HCV 5′NTR fused to 12 amino acids of the capsid coding region, (2) the neomycin phosphotransferase gene (Neo) as a selectable marker, (3) the internal ribosome entry site (IRES) from encephalomyocarditis virus (EMCV) that directs translation of HCV non-structural proteins (variously NS2 or NS3 to NS5B), and (4) the 3′ NTR. Replicon-containing cells autonomously and persistently replicate HCV RNA that can be measured quantitatively by real-time qPCR. Therefore, the replicon system facilitates quantitative assessment of anti-viral activity by monitoring changes in HCV RNA replication in a cell-based assay.
HCV replicon-containing cells (Huh7/Clone A) were routinely maintained in Clone A growth medium (DMEM medium [Invitrogen], supplemented with 10% Fetal Bovine Serum, 1% Non Essential Amino Acids and 1 g/L G418). […]
Total RNA eluted in 130 μl of RNase-free dH2O was quantitated by the RiboGreen Assay according to the supplier's protocol (Molecular Probe). […] RNA samples in the black microplate were mixed with 95 μl of diluted RiboGreen reagent (1:250 dilution in TE buffer) and sample fluorescence was measured using a fluorescence microplate reader at standard fluorescein wavelengths (excitation ˜480 nm, emission ˜520 nm). […]
TaqMan quantitative PCR(RT-qPCR) was used to quantitate the amount of HCV replicon RNA in each sample. […]

Row | Structure (SMILES) | IC50
1 | CCC[C@H](NC(=O)[C@@H]1C[C@@H](Oc2cc(-c3ccccn3)nc3ccsc23)CN1C(=O)[C@@H](NC(=O)NC(C)(C)C)C(C)(C)C)C(=O)C(=O)NC1CC1 [Example 5, (2S,4R)-1-((S)-2-(3-tert-butylureido)-3,3-dimethylbutanoyl)-N—((S)-1-(cyclopropylamino)-1,2-dioxohexan-3-yl)-4-(5-(pyridin-2-yl)thieno[3,2-b]pyridin-7-yloxy)pyrrolidine-2-carboxamide] | < 1000 nM
2 | CCC[C@H](NC(=O)[C@@H]1C[C@@H](Oc2nc(-c3ccccn3)nc3sccc23)CN1C(=O)[C@@H](NC(=O)NC(C)(C)C)C(C)(C)C)C(=O)C(=O)NC1CC1 [Example 6, (2S,4R)-1-((S)-2-(3-tert-butylureido)-3,3-dimethylbutanoyl)-N—((S)-1-(cyclopropylamino)-1,2-dioxohexan-3-yl)-4-(2-(pyridin-2-yl)thieno[2,3-d]pyrimidin-4-yloxy)pyrrolidine-2-carboxamide] | < 1000 nM
3 | CCC[C@H](NC(=O)[C@@H]1C[C@@H](Oc2nc(-c3ccccn3)nc3ccsc23)CN1C(=O)[C@@H](NC(=O)NC(C)(C)C)C(C)(C)C)C(=O)C(=O)NC1CC1 [Example 7, (2S,4R)-1-((S)-2-(3-tert-butylureido)-3,3-dimethylbutanoyl)-N—((S)-1-(cyclopropylamino)-1,2-dioxohexan-3-yl)-4-(2-(pyridin-2-yl)thieno[3,2-d]pyrimidin-4-yloxy)pyrrolidine-2-carboxamide] | < 1000 nM
